Source: PubChem BioAssay (NCI)
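Cells were grown in 96-well plates and exposed to each compound for 48 hours at five concentrations; endpoints were interpolated linearly between bracketing concentrations, or set to the highest concentration if not reached. Definition used: TGI = concentration required for complete inhibition of growth.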

Legend:
Assay in all cases: DTP human tumour cell line panel, 48 h
[1] = test system: 786-0 renal
[2] = test system: A498 renal
[3] = test system: A549 NSCLC
[4] = test system: ACHN renal
[5] = test system: CAKI-1 renal
[6] = test system: CCRF-CEM leukemia
[7] = test system: COLO 205 colon
[8] = test system: DLD-1 colon
[9] = test system: DMS 114 small cell lung
[10] = test system: DMS 273 small cell lung
[11] = test system: EKVX NSCLC
[12] = test system: HCC-2998 colon
[13] = test system: HCT-116 colon
[14] = test system: HCT-15 colon
[15] = test system: HL-60(TB) leukemia
[16] = test system: HOP-18 NSCLC
[17] = test system: HOP-92 NSCLC
[18] = test system: HT29 colon
[19] = test system: IGROV1 ovarian
[20] = test system: K-562 leukemia
[21] = test system: KM12 colon
[22] = test system: KM20L2 colon
[23] = test system: LOX IMVI melanoma
[24] = test system: LXFL 529 NSCLC
[25] = test system: M14 melanoma
[26] = test system: M19-MEL melanoma
[27] = test system: MALME-3M melanoma
[28] = test system: MOLT-4 leukemia
[29] = test system: NCI-H226 lung
[30] = test system: NCI-H23 lung
[31] = test system: NCI-H460 lung
[32] = test system: NCI-H522 lung
[33] = test system: OVCAR-3 ovarian
[34] = test system: OVCAR-4 ovarian
[35] = test system: OVCAR-5 ovarian
[36] = test system: OVCAR-8 ovarian
[37] = test system: RXF-631 renal
[38] = test system: SF-268 CNS
[39] = test system: SF-295 CNS
[40] = test system: SF-539 CNS
[41] = test system: SK-MEL-2 melanoma
[42] = test system: SK-MEL-28 melanoma
[43] = test system: SK-MEL-5 melanoma
[44] = test system: SK-OV-3 ovarian
[45] = test system: SN12C renal
[46] = test system: SNB-19 CNS
[47] = test system: SNB-75 CNS
[48] = test system: SNB-78 CNS
[49] = test system: SR leukemia
[50] = test system: SW-620 colon
[51] = test system: TK-10 renal
[52] = test system: U251 CNS
[53] = test system: UACC-257 melanoma
[54] = test system: UACC-62 melanoma
[55] = test system: UO-31 renal
[56] = test system: HOP-62 NSCLC
[57] = test system: RPMI-8226 leukemia
[58] = test system: RXF 393 renal
[59] = test system: XF 498 CNS

CCC(=O)C1=C(OC(C)=O)C2Cc3c(n(C)c4ccccc34)C(C1)N2C (stereo not drawn)
TGI [1]: 66.4 µM
TGI [2]: > 100 µM
TGI [3]: > 100 µM
TGI [4]: > 100 µM
TGI [5]: > 100 µM
TGI [6]: 80.9 µM
TGI [7]: > 100 µM
TGI [8]: 74.5 µM
TGI [9]: 58.7 µM
TGI [10]: 41.7 µM
TGI [11]: > 100 µM
TGI [12]: > 100 µM
TGI [13]: 85.1 µM
TGI [14]: 38 µM
TGI [15]: 53 µM
TGI [16]: > 100 µM
TGI [17]: > 100 µM
TGI [18]: > 100 µM
TGI [19]: > 100 µM
TGI [20]: > 100 µM
TGI [21]: > 100 µM
TGI [22]: > 100 µM
TGI [23]: > 100 µM
TGI [24]: > 100 µM
TGI [25]: > 100 µM
TGI [26]: > 100 µM
TGI [27]: > 100 µM
TGI [28]: > 100 µM
TGI [29]: > 100 µM
TGI [30]: > 100 µM
TGI [31]: > 100 µM
TGI [32]: 30 µM
TGI [33]: > 100 µM
TGI [34]: > 100 µM
TGI [35]: > 100 µM
TGI [36]: 41.6 µM
TGI [37]: 67.2 µM
TGI [38]: 47.9 µM
TGI [39]: > 100 µM
TGI [40]: 59.2 µM
TGI [41]: > 100 µM
TGI [42]: > 100 µM
TGI [43]: 97.9 µM
TGI [44]: > 100 µM
TGI [45]: 61.5 µM
TGI [46]: > 100 µM
TGI [47]: > 100 µM
TGI [48]: 56.4 µM
TGI [49]: > 100 µM
TGI [50]: 90.1 µM
TGI [51]: > 100 µM
TGI [52]: > 100 µM
TGI [53]: > 100 µM
TGI [54]: > 100 µM
TGI [55]: > 100 µM

O=c1[nH]c(=S)[nH]c2c1sc(=S)n2-c1ccccc1
TGI [1]: > 100 µM
TGI [2]: > 100 µM
TGI [3]: > 100 µM
TGI [4]: > 100 µM
TGI [5]: > 100 µM
TGI [6]: > 100 µM
TGI [7]: > 100 µM
TGI [8]: > 100 µM
TGI [9]: > 100 µM
TGI [10]: > 100 µM
TGI [11]: > 100 µM
TGI [12]: > 100 µM
TGI [13]: > 100 µM
TGI [14]: > 100 µM
TGI [15]: > 100 µM
TGI [16]: > 100 µM
TGI [56]: > 100 µM
TGI [17]: > 100 µM
TGI [18]: > 100 µM
TGI [19]: > 100 µM
TGI [20]: > 100 µM
TGI [21]: > 100 µM
TGI [22]: > 100 µM
TGI [23]: > 100 µM
TGI [24]: > 100 µM
TGI [25]: > 100 µM
TGI [26]: > 100 µM
TGI [27]: > 100 µM
TGI [28]: > 100 µM
TGI [29]: > 100 µM
TGI [30]: > 100 µM
TGI [31]: > 100 µM
TGI [32]: > 100 µM
TGI [33]: > 100 µM
TGI [34]: > 100 µM
TGI [35]: > 100 µM
TGI [36]: > 100 µM
TGI [57]: > 100 µM
TGI [58]: > 100 µM
TGI [38]: > 100 µM
TGI [39]: > 100 µM
TGI [40]: > 100 µM
TGI [41]: > 100 µM
TGI [42]: > 100 µM
TGI [43]: > 100 µM
TGI [44]: > 100 µM
TGI [45]: > 100 µM
TGI [46]: > 100 µM
TGI [47]: > 100 µM
TGI [48]: > 100 µM
TGI [49]: > 100 µM
TGI [50]: > 100 µM
TGI [51]: > 100 µM
TGI [52]: > 100 µM
TGI [53]: > 100 µM
TGI [54]: > 100 µM
TGI [55]: > 100 µM
TGI [59]: > 100 µM
